Measured values published in ChEMBL document CHEMBL1147208, “Asymmetric synthesis of chiral piperazinylpropylisoxazoline ligands for dopamine receptors” (Eur J Med Chem, 2007).

Tests used:
D(4) dopamine receptor = target: T1, D(4) dopamine receptor (Homo sapiens, UniProt P21917); assay: Displacement of [3H]YM-09151-2 from human cloned dopamine D4 receptor expressed in CHO cells
T1 sequence (P21917 whole entry): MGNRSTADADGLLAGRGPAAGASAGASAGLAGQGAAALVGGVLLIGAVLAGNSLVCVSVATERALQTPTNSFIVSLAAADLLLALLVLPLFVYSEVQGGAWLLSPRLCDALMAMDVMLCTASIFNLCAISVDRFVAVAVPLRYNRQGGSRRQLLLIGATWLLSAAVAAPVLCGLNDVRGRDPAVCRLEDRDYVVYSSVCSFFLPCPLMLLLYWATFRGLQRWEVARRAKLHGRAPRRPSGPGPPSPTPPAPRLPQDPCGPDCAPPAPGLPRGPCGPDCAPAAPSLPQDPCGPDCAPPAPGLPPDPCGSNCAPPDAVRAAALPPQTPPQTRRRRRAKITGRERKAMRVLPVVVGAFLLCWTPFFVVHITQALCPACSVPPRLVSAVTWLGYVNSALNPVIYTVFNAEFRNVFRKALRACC

D(2) dopamine receptor = D(2) dopamine receptor (Homo sapiens, UniProt P14416); assay: Displacement of [3H]spiperone from human cloned dopamine receptor D2 long expressed in CHO cells; format: cell-based
Sequence of D(2) dopamine receptor (P14416 whole entry): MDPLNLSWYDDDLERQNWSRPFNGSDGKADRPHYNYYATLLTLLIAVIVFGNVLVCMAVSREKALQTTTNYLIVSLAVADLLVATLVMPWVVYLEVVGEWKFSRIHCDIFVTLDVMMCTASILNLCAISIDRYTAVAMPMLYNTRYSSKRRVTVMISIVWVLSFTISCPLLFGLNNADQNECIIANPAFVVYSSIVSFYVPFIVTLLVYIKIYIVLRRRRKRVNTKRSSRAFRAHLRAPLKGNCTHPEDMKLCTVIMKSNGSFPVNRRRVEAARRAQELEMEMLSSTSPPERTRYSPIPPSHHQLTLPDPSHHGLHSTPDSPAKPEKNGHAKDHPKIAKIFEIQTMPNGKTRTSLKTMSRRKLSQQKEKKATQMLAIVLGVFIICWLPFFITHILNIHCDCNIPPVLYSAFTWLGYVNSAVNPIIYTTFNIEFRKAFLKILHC

D(3) dopamine receptor = D(3) dopamine receptor (Homo sapiens, UniProt P35462); assay: biochemical
Sequence of D(3) dopamine receptor (P35462 whole entry): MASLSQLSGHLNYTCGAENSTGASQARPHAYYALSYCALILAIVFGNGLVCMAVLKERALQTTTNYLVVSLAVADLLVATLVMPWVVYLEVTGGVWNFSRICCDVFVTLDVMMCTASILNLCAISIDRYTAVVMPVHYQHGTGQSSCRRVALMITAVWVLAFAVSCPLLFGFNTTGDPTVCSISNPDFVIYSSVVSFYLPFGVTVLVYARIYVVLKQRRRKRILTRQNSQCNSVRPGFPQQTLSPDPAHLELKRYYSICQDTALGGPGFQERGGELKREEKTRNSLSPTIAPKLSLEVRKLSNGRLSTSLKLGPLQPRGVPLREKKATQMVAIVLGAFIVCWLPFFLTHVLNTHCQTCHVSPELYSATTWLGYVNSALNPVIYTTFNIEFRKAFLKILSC
Description: Displacement of [3H]YM-09151-2 from human cloned dopamine D3 receptor expressed in CHO cells

| SMILES | Ki (D(4) dopamine receptor) [nM] | Ki (D(2) dopamine receptor) [nM] | Ki (D(3) dopamine receptor) [nM] |
| --- | --- | --- | --- |
| COc1ccc(C2=NO[C@@H](CCCN3CCN(C(c4ccc(F)cc4)c4ccc(F)cc4)CC3)C2)cc1OC | 483 | 400 | 20 |
| COc1ccc(C2=NO[C@H](CCCN3CCN(C(c4ccc(F)cc4)c4ccc(F)cc4)CC3)C2)cc1OC | 426 | 80 | 2.1 |
| CCOc1ccccc1N1CCN(CCC[C@H]2CC(c3ccc(OC)c(OC)c3)=NO2)CC1 | 225 | 70 | 5.1 |
| CCOc1ccccc1N1CCN(CCC[C@@H]2CC(c3ccc(OC)c(OC)c3)=NO2)CC1 | 507 | 46 | 2.1 |
